What was measured:
Experiment in all cases: relative viability (nuclei count vs DMSO), 5 days (fraction); higher = more cells survive
[1] = compound: Cc1ccc(C(=O)N(CCCN)[C@@H](c2nc3cc(Cl)ccc3c(=O)n2Cc2ccccc2)C(C)C)cc1 [Ispinesib] + Cc1cc(Nc2cc(N3CCN(C)CC3)nc(Sc3ccc(NC(=O)C4CC4)cc3)n2)n[nH]1 [Tozasertib] (partner 0.1 µM)
How it was run: (§1)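 The day after seeding in 1536-well plates, lung cancer cell lines were treated by pin tool with a single drug, or with a fixed anchor-drug dose together with five library-drug doses (not always all listed) in √10 steps. After 5 days, a combined fix-and-stain solution (final 0.05% Triton X-100, 1% formaldehyde, 1 ug/ml Hoechst) was added. Nuclei counted on 4× images gave relative viability as treated counts over vehicle counts, reported as the median of duplicate plates.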

[2] = compound: Cc1ccc(C(=O)N(CCCN)[C@@H](c2nc3cc(Cl)ccc3c(=O)n2Cc2ccccc2)C(C)C)cc1 [Ispinesib] + CS(=O)(=O)CCNCc1ccc(-c2ccc3ncnc(Nc4ccc(OCc5cccc(F)c5)c(Cl)c4)c3c2)o1 [Lapatinib] (partner 2 µM)
How it was run: as §1

[3] = compound: C[C@]1(O)C[C@@H](c2nc(-c3ccc4ccc(-c5ccccc5)nc4c3)c3c(N)nccn32)C1 [Linsitinib] + Nc1ncn([C@H]2C[C@H](O)[C@@H](CO)O2)c(=O)n1 [Decitabine] (partner 2 µM)
How it was run: as §1

[4] = compound: Cc1ccc(C(=O)N(CCCN)[C@@H](c2nc3cc(Cl)ccc3c(=O)n2Cc2ccccc2)C(C)C)cc1 [Ispinesib] + CC(=O)Nc1cccc(-n2c(=O)n(C3CC3)c(=O)c3c(Nc4ccc(I)cc4F)n(C)c(=O)c(C)c32)c1 [Trametinib] (partner 0.02 µM)
How it was run: as §1

Cell Line | relative viability ([1]; first compound 0.001 µM) | relative viability ([1]; first compound 0.003162 µM) | relative viability ([1]; first compound 0.01 µM) | relative viability ([1]; first compound 0.03162 µM) | relative viability ([1]; first compound 0.1 µM) | relative viability ([2]; first compound 0.001 µM) | relative viability ([2]; first compound 0.003162 µM) | relative viability ([2]; first compound 0.01 µM) | relative viability ([2]; first compound 0.03162 µM) | relative viability ([2]; first compound 0.1 µM) | relative viability ([3]; first compound 0.01 µM) | relative viability ([3]; first compound 0.03162 µM) | relative viability ([3]; first compound 0.1 µM) | relative viability ([3]; first compound 0.3162 µM) | relative viability ([3]; first compound 1 µM) | relative viability ([4]; first compound 0.001 µM) | relative viability ([4]; first compound 0.003162 µM) | relative viability ([4]; first compound 0.01 µM) | relative viability ([4]; first compound 0.03162 µM) | relative viability ([4]; first compound 0.1 µM)
NCI-H2347 | 0.529 | 0.545 | 0.65 | 0.55 | 0.52 | 0.943 | 1.05 | 0.957 | 0.667 | 0.774 | 0.644 | 0.668 | 0.629 | 0.591 | 0.614 | 0.299 | 0.23 | 0.294 | 0.343 | 0.252
NCI-H1651 | 0.692 | 0.776 | 0.968 | 0.824 | 0.234 | 0.974 | 1.02 | 1.04 | 0.234 | 0.187 | 0.316 | 0.744 | 0.518 | 0.516 | 0.597 | 0.836 | 0.896 | 0.887 | 0.882 | 0.831
H3255 | 0.599 | 0.767 | 0.717 | 0.601 | 0.614 | 0.214 | 0.171 | 0.205 | 0.176 | 0.236 | – | 0.627 | 0.559 | 0.518 | 0.686 | 0.621 | 0.711 | 0.622 | 0.448 | 0.328
Calu-6 | – | – | – | – | – | 1.24 | 0.955 | 0.526 | 0.217 | 0.256 | – | – | – | – | – | – | – | – | – | –
NCI-H522 | 0.562 | 0.508 | 0.542 | 0.557 | 0.702 | – | – | – | – | – | 0.657 | 0.773 | 0.614 | 0.688 | 0.587 | 0.814 | 0.879 | 0.913 | 0.788 | 0.646
NCI-H650 | 0.738 | 0.712 | 0.77 | 0.742 | 0.426 | 0.89 | 1.17 | 0.638 | 0.34 | 0.23 | 0.313 | 0.396 | 0.287 | – | 0.306 | 0.969 | 1.07 | 1.03 | 0.828 | 0.779
NCI-H460 | 0.4 | 0.577 | 0.503 | 0.417 | 0.0671 | 1.1 | 1.23 | 1.39 | 0.335 | 0.0345 | 0.497 | 0.483 | 0.511 | – | 0.424 | 0.225 | 0.207 | 0.218 | 0.0463 | 0.0454
NCI-H2228 | 0.299 | 0.28 | 0.236 | 0.152 | 0.365 | 1.23 | 1.29 | 1.26 | 0.363 | 0.422 | – | – | – | – | – | 0.615 | 0.496 | 0.415 | 0.263 | 0.28
LCLC-103H | 0.5 | 0.608 | 0.584 | 0.382 | 0.485 | – | – | – | – | – | 0.757 | 0.713 | 0.658 | 0.628 | 0.739 | 0.724 | 0.7 | 0.723 | 0.667 | 0.654
NCI-H1648 | 0.532 | 0.484 | 0.394 | 0.498 | 0.44 | – | – | – | – | – | 0.468 | 0.445 | 0.428 | 0.377 | 0.46 | 0.47 | 0.559 | 0.479 | 0.583 | 0.496
NCI-H2342 | 0.492 | 0.502 | 0.544 | 0.554 | 0.43 | – | – | – | – | – | 0.765 | 0.78 | 0.732 | 0.688 | 0.75 | 0.892 | 0.819 | 0.896 | 0.797 | 0.722
EBC-1 | – | – | – | – | – | 0.203 | 0.204 | 0.223 | 0.13 | 0.193 | – | – | – | – | – | – | – | – | – | –
ChaGo-K-1 | 0.22 | 0.225 | 0.234 | 0.248 | 0.222 | – | – | – | – | – | 0.504 | 0.519 | 0.49 | – | 0.51 | 0.903 | 0.999 | 1.06 | 0.992 | 0.895
IA-LM | – | – | – | – | – | 0.833 | 1.03 | 0.513 | 0.123 | 0.197 | – | – | – | – | – | – | – | – | – | –
NCI-H1703 | – | – | – | – | – | 1.32 | 0.893 | 0.227 | 0.11 | 0.234 | – | – | – | – | – | – | – | – | – | –
A549 | – | – | – | – | – | 1.07 | 1.07 | 0.952 | 0.172 | 0.127 | 0.246 | 0.234 | 0.309 | 0.12 | 0.241 | – | – | – | – | –
NCI-H1623 | 0.404 | 0.719 | 0.473 | 0.394 | 0.324 | – | – | – | – | – | – | – | – | – | – | – | – | – | – | –
NCI-H1563 | – | – | – | – | – | 1.03 | 0.956 | 0.928 | 0.686 | 0.624 | – | – | – | – | – | – | – | – | – | –
NCI-H1792 | – | – | – | – | – | 0.876 | 1.05 | 0.843 | 0.418 | 0.314 | 0.496 | 0.484 | 0.512 | 0.472 | 0.363 | 0.42 | 0.463 | 0.515 | 0.398 | 0.117
ABC-1 | 0.197 | 0.174 | 0.21 | 0.182 | 0.184 | 1.06 | 1.18 | 1.19 | 1.03 | 0.766 | 1.02 | 1.17 | 1.22 | 0.995 | 0.842 | – | – | – | – | –
